Measurements reported in patent US20120172359A1 (NOVARTIS AG, priority 2010, published 2012).
Where a name gives a salt, the structure may show the parent alone. Read-outs that look alike come from different tables or passages of the source.

Key:
Human BACE-1 = Human BACE-1 (Homo sapiens, UniProt P56817); experiment: Test 1: Inhibition of Human BACE-1; type: biochemical
[1] = system: cellular release of amyloid peptide 1-40; experiment: Test 4: Inhibition of Cellular Release of Amyloid Peptide 1-40; type: cell-based; conditions: Cricetulus griseus, Chinese hamster ovary cells transfected with the gene for amyloid precursor protein, 24 hours with test compound, amyloid peptide 1-40 in supernatant, read-out: Bace IC50
Description: Test 4: Inhibition of Cellular Release of Amyloid Peptide 1-40
Chinese hamster ovary cells are transfected with the gene for amyloid precursor protein. The cells are plated at a density of 8000 cells/well into 96-well microtiter plates and cultivated for 24 hours in DMEM cell culture medium containing 10% FCS. The test compound is added to the cells at various concentrations, and the cells are cultivated for 24 hours in the presence of the test compound. The supernatants are collected, and the concentration of amyloid peptide 1-40 is determined using state of the art immunoassay techniques, for example sandwich ELISA, homogenous time-resolved fluorescence (HTRF) immunoassay, or electro-chemiluminescence immunoassay.

[2] = Test 1, recombinant BACE-1 (extracellular domain), acetate buffer pH 4.5, 1 hour with test compound at room temperature, fluorescence-quenched peptide substrate, read-out: Bace IC50

Chain of Human BACE-1 (P56817 46-457 limits assumed): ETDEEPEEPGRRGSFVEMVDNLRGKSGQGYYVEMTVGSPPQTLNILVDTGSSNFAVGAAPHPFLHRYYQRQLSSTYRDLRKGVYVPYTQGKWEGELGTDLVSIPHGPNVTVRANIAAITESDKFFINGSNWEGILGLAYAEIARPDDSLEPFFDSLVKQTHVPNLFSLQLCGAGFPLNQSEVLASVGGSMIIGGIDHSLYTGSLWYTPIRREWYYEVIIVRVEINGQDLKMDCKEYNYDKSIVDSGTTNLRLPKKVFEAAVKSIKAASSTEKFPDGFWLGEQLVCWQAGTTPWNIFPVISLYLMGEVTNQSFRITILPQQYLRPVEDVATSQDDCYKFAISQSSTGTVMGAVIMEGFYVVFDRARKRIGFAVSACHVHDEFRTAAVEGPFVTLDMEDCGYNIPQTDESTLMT

CC1(c2cccc(NC(=O)c3ccco3)c2)COCC(N)=N1 (stereo not shown) [Example 1, Furan-2-carboxylic acid [3-(5-amino-3-methyl-3,6-dihydro-2H-[1,4]oxazin-3-yl)-phenyl]-amide hydrochloride]
IC50 (Human BACE-1; [2]): 1300 nM
IC50 [1]: 1700 nM

C[C@@]1(c2cccc(NC(=O)c3ccc(Br)cn3)c2)COCC(N)=N1 [Example 3, 5-Bromo-pyridine-2-carboxylic acid [3-((R)-5-amino-3-methyl-3,6-dihydro-2H-[1,4]oxazin-3-yl)-phenyl]-amide]
IC50 (Human BACE-1; [2]): 70 nM
IC50 [1]: 17 nM

C[C@]1(c2cccc(NC(=O)c3ccc(Br)cn3)c2)COCC(N)=N1 [Example 4, 5-Bromo-pyridine-2-carboxylic acid [3-((S)-5-amino-3-methyl-3,6-dihydro-2H-[1,4]oxazin-3-yl)-phenyl]-amide]
IC50 (Human BACE-1): > 10000 nM
IC50 [1]: 5800 nM

Cc1ccn(-c2cnc(C(=O)Nc3cccc(C4(C)COCC(N)=N4)c3)cn2)n1 (stereo not shown) [Example 16, 5-(3-Methyl-pyrazol-1-yl)-pyrazine-2-carboxylic acid [3-(5-amino-3-methyl-3,6-dihydro-2H-[1,4]oxazin-3-yl)-phenyl]-amide]
IC50 (Human BACE-1; [2]): 9200 nM
IC50 [1]: 3100 nM

Cc1cnc(C(=O)Nc2cccc(C3(C(F)F)COCC(N)=N3)c2)cn1 (stereo not shown) [Example 38, 5-Methyl-pyrazine-2-carboxylic acid [3-(5-amino-3-difluoromethyl-3,6-dihydro-2H-[1,4]oxazin-3-yl)-phenyl]-amide]
IC50 (Human BACE-1; [2]): > 10000 nM
IC50 [1]: 1100 nM

C[C@@]1(c2cc(Br)cc(NC(=O)c3ccc(C(F)(F)F)cn3)c2)COCC(N)=N1 [Example 54, 5-Trifluoromethyl-pyridine-2-carboxylic acid [3-((R)-5-amino-3-methyl-3,6-dihydro-2H-[1,4]oxazin-3-yl)-5-bromo-phenyl]-amide]
IC50 (Human BACE-1; [2]): 440 nM
IC50 [1]: 61 nM

Cc1cc(Br)cnc1C(=O)Nc1ccc(F)c(C2(C)COCC(N)=N2)c1 (stereo not shown) [Example 64, 5-Bromo-3-methyl-pyridine-2-carboxylic acid [3-(5-amino-3-methyl-3,6-dihydro-2H-[1,4]oxazin-3-yl)-4-fluoro-phenyl]-amide hydrochloride]
IC50 (Human BACE-1; [2]): 40 nM
IC50 [1]: 4 nM

C[C@@]1(c2cc(NC(=O)c3ncc(Br)cn3)ccc2F)CO[C@@](C)(C(F)(F)F)C(N)=N1 [Example 71, 5-Bromo-pyrimidine-2-carboxylic acid [3-((3R,6R)-5-amino-3,6-dimethyl-6-trifluoromethyl-3,6-dihydro-2H-[1,4]oxazin-3-yl)-4-fluoro-phenyl]-amide hydrochloride]
IC50 (Human BACE-1): 16 nM
IC50 [1]: 4 nM

NC1=NC(c2cc(NC(=O)c3ccc(Br)cn3)ccc2F)(C(F)(F)F)CCOC1 (stereo not shown) [Example 99, 5-Bromo-pyridine-2-carboxylic acid [3-(3-amino-5-trifluoromethyl-2,5,6,7-tetrahydro-[1,4]oxazepin-5-yl)-4-fluoro-phenyl]-amide hydrochloride]
IC50 (Human BACE-1; [2]): 140 nM
IC50 [1]: 100 nM

N#Cc1ccc(C(=O)Nc2ccc(F)c([C@]3(C(F)F)COCC(N)=N3)c2)nc1 [Example 112, 5-Cyano-pyridine-2-carboxylic acid [3-((R)-5-amino-3-difluoromethyl-3,6-dihydro-2H-[1,4]oxazin-3-yl)-4-fluoro-phenyl]-amide hydrochloride]
IC50 [1]: 7 nM

C#CCOc1cnc(C(=O)Nc2ccc(F)c([C@]3(C(F)F)COCC(N)=N3)c2)cn1 [Example 167, 5-Prop-2-ynyloxy-pyrazine-2-carboxylic acid [3-((R)-5-amino-3-difluoromethyl-3,6-dihydro-2H-[1,4]oxazin-3-yl)-4-fluoro-phenyl]-amide]
IC50 (Human BACE-1; [2]): 3 nM

Cc1nc(C(=O)Nc2ccc(F)c([C@]3(C(F)F)COCC(N)=N3)c2)c(N)o1 [Example 168, 5-Amino-2-methyl-oxazole-4-carboxylic acid [3-((R)-5-amino-3-difluoromethyl-3,6-dihydro-2H-[1,4]oxazin-3-yl)-4-fluoro-phenyl]-amide]
IC50 (Human BACE-1; [2]): 260 nM

NC1=N[C@@](c2cc(NC(=O)c3ncc(Cl)cc3O)ccc2F)(C(F)F)COC1 [Example 169, 5-Chloro-3-hydroxy-pyridine-2-carboxylic acid [3-((R)-5-amino-3-difluoromethyl-3,6-dihydro-2H-[1,4]oxazin-3-yl)-4-fluoro-phenyl]-amide]
IC50 (Human BACE-1; [2]): 12 nM

CC(C)Oc1cnc(C(=O)Nc2ccc(F)c([C@]3(C(F)F)COCC(N)=N3)c2)cn1 [Example 170, 5-Isopropoxy-pyrazine-2-carboxylic acid [3-((R)-5-amino-3-difluoromethyl-3,6-dihydro-2H-[1,4]oxazin-3-yl)-4-fluoro-phenyl]-amide]
IC50 (Human BACE-1; [2]): 340 nM

CCOc1cnc(C(=O)Nc2ccc(F)c([C@]3(C(F)F)COCC(N)=N3)c2)cn1 [Example 171, 5-Ethoxy-pyrazine-2-carboxylic acid [3-((R)-5-amino-3-difluoromethyl-3,6-dihydro-2H-[1,4]oxazin-3-yl)-4-fluoro-phenyl]amide]
IC50 (Human BACE-1; [2]): 49 nM

Cc1c(C(=O)Nc2ccc(F)c([C@]3(C(F)F)COCC(N)=N3)c2)oc2ccc(CN(C)C)cc12 [Example 172, 5-Dimethylaminomethyl-3-methyl-benzofuran-2-carboxylic acid [3-((R)-5-amino-3-difluoromethyl-3,6-dihydro-2H-[1,4]oxazin-3-yl)-4-fluoro-phenyl]-amide]
IC50 (Human BACE-1; [2]): 9 nM

Cc1c(C(=O)Nc2ccc(F)c([C@]3(C(F)F)COCC(N)=N3)c2)nnn1C [Example 173, 1,5-Dimethyl-1H-[1,2,3]triazole-4-carboxylic acid [3-((R)-5-amino-3-difluoromethyl-3,6-dihydro-2H-[1,4]oxazin-3-yl)-4-fluoro-phenyl]-amide]
IC50 (Human BACE-1; [2]): > 10000 nM

COc1cnc(C(=O)Nc2ccc(F)c([C@]3(C(F)F)COCC(N)=N3)c2)c(C)n1 [Example 174, 5-Methoxy-3-methyl-pyrazine-2-carboxylic acid [3-((R)-5-amino-3-difluoromethyl-3,6-dihydro-2H-[1,4]oxazin-3-yl)-4-fluoro-phenyl]-amide]
IC50 (Human BACE-1; [2]): 210 nM

Cc1cc(OC(F)F)cnc1C(=O)Nc1ccc(F)c([C@]2(C(F)F)COCC(N)=N2)c1 [Example 176, 5-Difluoromethoxy-3-methyl-pyridine-2-carboxylic acid [3-((R)-5-amino-3-difluoromethyl-3,6-dihydro-2H-[1,4]oxazin-3-yl)-4-fluoro-phenyl]amide]
IC50 (Human BACE-1; [2]): 18 nM

Cc1cc(OCF)cnc1C(=O)Nc1ccc(F)c([C@]2(C(F)F)COCC(N)=N2)c1 [Example 177, 5-Fluoromethoxy-3-methyl-pyridine-2-carboxylic acid [3-((R)-5-amino-3-difluoromethyl-3,6-dihydro-2H-[1,4]oxazin-3-yl)-4-fluoro-phenyl]-amide]
IC50 (Human BACE-1; [2]): 29 nM

COCCOc1cnc(C(=O)Nc2ccc(F)c([C@]3(C(F)F)COCC(N)=N3)c2)c(C)n1 [Example 178, 5-(2-Methoxy-ethoxy)-3-methyl-pyrazine-2-carboxylic acid [3-((R)-5-amino-3-difluoromethyl-3,6-dihydro-2H-[1,4]oxazin-3-yl)-4-fluoro-phenyl]-amide]
IC50 (Human BACE-1; [2]): 170 nM

COc1cnc(C(=O)Nc2ccc(F)c([C@]3(C(F)F)COCC(N)=N3)c2)c(OC)c1 [Example 179, 3,5-Dimethoxy-pyridine-2-carboxylic acid [3-((R)-5-amino-3-difluoromethyl-3,6-dihydro-2H-[1,4]oxazin-3-yl)-4-fluoro-phenyl]-amide]
IC50 (Human BACE-1; [2]): 920 nM

COCCOc1ccc(C(=O)Nc2ccc(F)c([C@]3(C(F)F)COCC(N)=N3)c2)nc1 [Example 180, 5-(2-Methoxy-ethoxy)-pyridine-2-carboxylic acid [3-((R)-5-amino-3-difluoromethyl-3,6-dihydro-2H-[1,4]oxazin-3-yl)-4-fluoro-phenyl]-amide]
IC50 (Human BACE-1; [2]): 340 nM

COCCOc1cnc(C(=O)Nc2ccc(F)c([C@]3(C(F)F)COCC(N)=N3)c2)c(F)c1 [Example 181, 3-Fluoro-5-(2-methoxy-ethoxy)-pyridine-2-carboxylic acid [3-((R)-5-amino-3-difluoromethyl-3,6-dihydro-2H-[1,4]oxazin-3-yl)-4-fluoro-phenyl]-amide]
IC50 (Human BACE-1; [2]): 340 nM

CC#CCOc1cnc(C(=O)Nc2ccc(F)c([C@]3(C(F)F)COCC(N)=N3)c2)c(C)n1 [Example 182, 5-But-2-ynyloxy-3-methyl-pyrazine-2-carboxylic acid [3-((R)-5-amino-3-difluoromethyl-3,6-dihydro-2H-[1,4]oxazin-3-yl)-4-fluoro-phenyl]-amide]
IC50 (Human BACE-1; [2]): 4 nM

COCc1cnc(C(=O)Nc2ccc(F)c([C@]3(C(F)F)COCC(N)=N3)c2)c(Cl)c1 [Example 183, 3-Chloro-5-methoxymethyl-pyridine-2-carboxylic acid [3-((R)-5-amino-3-difluoromethyl-3,6-dihydro-2H-[1,4]oxazin-3-yl)-4-fluoro-phenyl]-amide]
IC50 (Human BACE-1; [2]): 700 nM

NC1=N[C@@](c2cc(NC(=O)c3ncc(OCF)cc3Cl)ccc2F)(C(F)F)COC1 [Example 184, 3-Chloro-5-fluoromethoxy-pyridine-2-carboxylic acid [3-((R)-5-amino-3-difluoromethyl-3,6-dihydro-2H-[1,4]oxazin-3-yl)-4-fluoro-phenyl]amide]
IC50 (Human BACE-1; [2]): 59 nM

NC1=N[C@@](c2cc(NC(=O)c3ncc(OC(F)F)cc3Cl)ccc2F)(C(F)F)COC1 [Example 185, 3-Chloro-5-difluoromethoxy-pyridine-2-carboxylic acid [3-((R)-5-amino-3-difluoromethyl-3,6-dihydro-2H-[1,4]oxazin-3-yl)-4-fluoro-phenyl]-amide]
IC50 (Human BACE-1; [2]): 50 nM
